Format in all cases: cell-based
In experiment [1] the test system is Hela. Nature of the experiment: Antiproliferation assay (MTS), HeLa cells. The settings on record: Homo sapiens, 96 h. The procedure: (§1) Cells were grown at 37° C. in a humidified atmosphere consisting of 5% CO2 and 95% air.
(§2) Antiproliferation Assays: Cells were plated in a 96-well culture plate with 2000-8000 cells per well. The compounds were prepared in DMSO and used to treat cells in a final concentration of less than 1% DMSO. Compound treatment started after overnight incubation of cells (T0). […] Compound was added to the plate in triplicate wells, and the plates were then incubated for 96 hours. DMSO (compound diluent) was also included and added to the plate in control wells. Cell viability was then determined by MTS assay using the CellTiter 96® aqueous non-radioactive cell proliferation assay system (Promega, Madison, Wis. 53711 USA). A plate reader (Vmax, Molecular Devices, Sunnyvale Calif. 94089 USA) was used to determine the optical densities, and the results were used to deduce concentration-response curves. […] The results were analyzed using linear regression software (GraphPad Prism 5; GraphPad Software Inc. La Jolla Calif. 92037 USA).

For experiment [2], the system named is K562. The experiment in a line: Antiproliferation assay (MTS), K562 cells. The following applies: Homo sapiens, K562, 96 h. The procedure: as §1, §2
The test system of experiment [3] is MDA-MB-468. Nature of the experiment: Antiproliferation assay (MTS), MDA-MB-468 cells. The following applies: Homo sapiens, MDA-MB-468, 96 h. As to the method:
as §1, §2

Experiment [4] concerns MDA-MB-231. Nature of the experiment: Antiproliferation assay (MTS), MDA-MB-231 cells. The following applies: Homo sapiens, MDA-MB-231, 96 h. As to the method: as §1, §2
[5] abbreviates: Table 1, read-out: Antiproliferative IC50 Hela.
Where [6] appears, read: Table 1, read-out: Antiproliferative IC50 K562.
Where [7] appears, read: Table 1, read-out: Antiproliferative IC50 MDA-MB-468.
Setting [8] is: read-out: Antiproliferative IC50 MDA-MB-231, Table 1.

Like-named read-outs stand apart in the source and are kept apart here.

As to `Cc1cc(Oc2ccc([N+](=O)[O-])nc2)cc(C)c1-c1csc(NC(=O)c2ccncc2)n1` [Compound 24, N-{4-(2,6-Dimethyl-4-(6-nitropyridin-3-yloxy)phenyl)thiazol-2-yl}isonicotinamide], the 50% inhibitory concentration (IC50) in experiment [1] (setting [5]) came out at 73.8 nM; in experiment [2] (setting [6]), 148 nM; in experiment [3] (setting [7]), 158 nM; in experiment [4] (setting [8]), 181 nM.

As to `Cc1cc(Oc2ccc(Oc3ccccc3)cc2)cc(C)c1-c1csc(NC(=O)c2ccncc2)n1` [Compound 26, N-{4-(2,6-Dimethyl-4-(4-phenoxyphenoxy)phenyl)thiazol-2-yl}isonicotinamide], the IC50 in experiment [1] (setting [5]) was found to be 84.8 nM; in experiment [2] (setting [6]) it was 64.4 nM; in experiment [3] (setting [7]), 132 nM; in experiment [4] (setting [8]) it was 99.4 nM.

For `Cc1cc(Sc2cnc(OCCN(C)C)cn2)cc(C)c1-c1csc(NC(=O)c2ccncc2)n1` [Compound 28, N-(4-(4-{5-(2-(Dimethylamino)ethoxy)pyrazin-2-ylthio}-2,6-dimethylphenyl)thiazol-2-yl)isonicotinamide], the half-maximal inhibitory concentration (IC50) in experiment [1] (setting [5]) is 32.8 nM; in experiment [2] (setting [6]) it was 59.2 nM; in experiment [3] (setting [7]) it was 74.5 nM; in experiment [4] (setting [8]) it was 124 nM.

For the compound `COCCNc1ccc(Oc2cc(C)c(-c3csc(NC(=O)c4ccncc4)n3)c(C)c2)cn1` [Compound 29, N-(4-{4-(6-(2-Methoxyethylamino)pyridin-3-yloxy)-2,6-dimethylphenyl}thiazol-2-yl)isonicotinamide], the IC50 in experiment [1] (setting [5]) is 8.3 nM; in experiment [2] (setting [6]), 11.7 nM; in experiment [3] (setting [7]) it was 16.6 nM; in experiment [4] (setting [8]), 21.9 nM.

For `COc1ccc(Oc2cc(C)c(-c3csc(NC(=O)c4ccncc4)n3)c(F)c2)cc1` [Compound 30, N-{4-(2-Fluoro-4-(4-methoxyphenoxy)-6-methylphenyl)thiazol-2-yl}isonicotinamide], the half-maximal inhibitory concentration (IC50) amounted to 108 nM in experiment [1] (setting [5]), 107 nM in experiment [2] (setting [6]), 143 nM in experiment [3] (setting [7]) and 270 nM in experiment [4] (setting [8]).

Regarding `COCCOc1cnc(S(=O)(=O)c2cc(C)c(-c3csc(NC(=O)c4ccncc4)n3)c(C)c2)cn1` [Compound 31, N-(4-{4-(5-(2-Methoxyethoxy)pyrazin-2-ylsulfonyl)-2,6-dimethylphenyl}thiazol-2-yl)isonicotinamide], the IC50 in experiment [1] (setting [5]) turned out to be 957 nM; in experiment [2] (setting [6]), 635 nM; in experiment [3] (setting [7]) it was 1000 nM; in experiment [4] (setting [8]), 1120 nM.

For `COCCOc1cnc([S+]([O-])c2cc(C)c(-c3csc(NC(=O)c4ccncc4)n3)c(C)c2)cn1` (stereo not shown) [Compound 32, N-(4-{4-(5-(2-Methoxyethoxy)pyrazin-2-ylsulfinyl)-2,6-dimethylphenyl}thiazol-2-yl)isonicotinamide], the 50% inhibitory concentration (IC50) in experiment [1] (setting [5]) came to 1120 nM; in experiment [2] (setting [6]) it was 734 nM; in experiment [3] (setting [7]), 1280 nM; in experiment [4] (setting [8]), 1700 nM.

Consider `COc1ccc(Sc2cc(C)c(-c3csc(NC(=O)c4ccncc4)n3)c(C)c2)cc1OC` [Compound 33, N-{4-(4-(3,4-Dimethoxyphenylsulfanyl)-2,6-dimethylphenyl)thiazol-2-yl}isonicotinamide], for which the 50% inhibitory concentration (IC50) in experiment [1] (setting [5]) was 57.1 nM; in experiment [2] (setting [6]), 28.3 nM; in experiment [3] (setting [7]), 73 nM; in experiment [4] (setting [8]), 49.4 nM.

Regarding `Cc1cc(Sc2ccc(O)cc2)cc(C)c1-c1csc(NC(=O)c2ccncc2)n1` [Compound 34, N-{4-(4-(4-Hydroxyphenylsulfanyl)-2,6-dimethylphenyl)thiazol-2-yl}isonicotinamide], the IC50 in experiment [1] (setting [5]) worked out at 302 nM; in experiment [2] (setting [6]) it was 89.4 nM; in experiment [3] (setting [7]) it was 279 nM; in experiment [4] (setting [8]), 184 nM.

On to `Cc1cc(Sc2ccc(N)cc2)cc(C)c1-c1csc(NC(=O)c2ccncc2)n1` [Compound 35, N-{4-(4-(4-Aminophenylsulfanyl)-2,6-dimethylphenyl)thiazol-2-yl}isonicotinamide], for which the IC50 in experiment [1] (setting [5]) came to 43.8 nM; in experiment [2] (setting [6]), 26.1 nM; in experiment [3] (setting [7]) it was 95.8 nM; in experiment [4] (setting [8]), 46.9 nM.

As to `CC(=O)Nc1ccc(Sc2cc(C)c(-c3csc(NC(=O)c4ccncc4)n3)c(C)c2)cc1` [Compound 36, N-{4-(4-(4-Acetylaminophenylsulfanyl)-2,6-dimethylphenyl)thiazol-2-yl}isonicotinamide], the IC50 was determined as 24.5 nM in experiment [1] (setting [5]), 18.9 nM in experiment [2] (setting [6]), 62.4 nM in experiment [3] (setting [7]) and 44.3 nM in experiment [4] (setting [8]).

On to `Cc1cc(Sc2ccc(Br)cc2)cc(C)c1-c1csc(NC(=O)c2ccncc2)n1` [Compound 37, N-{4-(4-(4-Bromophenylsulfanyl)-2,6-dimethylphenyl)thiazol-2-yl}isonicotinamide], for which the half-inhibitory concentration (IC50) in experiment [1] (setting [5]) was 243 nM; in experiment [2] (setting [6]) it was 62.5 nM; in experiment [3] (setting [7]) it was 226 nM; in experiment [4] (setting [8]), 148 nM.

With `Cc1cc(Sc2cccc(Cl)c2)cc(C)c1-c1csc(NC(=O)c2ccncc2)n1` [Compound 38, N-{4-(4-(3-Chlorophenylsulfanyl)-2,6-dimethylphenyl)thiazol-2-yl}isonicotinamide], the IC50 in experiment [1] (setting [5]) was 500 nM; in experiment [2] (setting [6]) it was 128 nM; in experiment [3] (setting [7]), 352 nM; in experiment [4] (setting [8]), 197 nM.

In the case of `Cc1cc(Sc2ccccc2Cl)cc(C)c1-c1csc(NC(=O)c2ccncc2)n1` [Compound 39, N-{4-(4-(2-Chlorophenylsulfanyl)-2,6-dimethylphenyl)thiazol-2-yl}isonicotinamide], the half-maximal inhibitory concentration (IC50) was determined as 211 nM in experiment [1] (setting [5]), 36.2 nM in experiment [2] (setting [6]), 73.9 nM in experiment [3] (setting [7]) and 55.9 nM in experiment [4] (setting [8]).

Consider `Cc1cc(Sc2ccc(Cl)cc2)cc(C)c1-c1csc(NC(=O)c2ccncc2)n1` [Compound 40, N-{4-(4-(4-Chlorophenylsulfanyl)-2,6-dimethylphenyl)thiazol-2-yl}isonicotinamide], for which the IC50 was 585 nM in experiment [1] (setting [5]), 93.5 nM in experiment [2] (setting [6]), 124 nM in experiment [3] (setting [7]) and 200 nM in experiment [4] (setting [8]).

As to `Cc1cc(Sc2nccn2C)cc(C)c1-c1csc(NC(=O)c2ccncc2)n1` [Compound 41, N-(4-(2,6-Dimethyl-4-((1-methyl-1H-imidazol-2-yl)thio)phenyl)thiazol-2-yl)isonicotinamide], the IC50 was 61.5 nM in experiment [1] (setting [5]), 31.1 nM in experiment [2] (setting [6]), 62.9 nM in experiment [3] (setting [7]) and 86.1 nM in experiment [4] (setting [8]).

Turning to `Cc1cc(Sc2ccc(N(S(C)(=O)=O)S(C)(=O)=O)cc2)cc(C)c1-c1csc(NC(=O)c2ccncc2)n1` [Compound 42, N-(4-(2,6-Dimethyl-4-((4-(N-(methylsulfonyl)methylsulfonamido)phenyl)thio)phenyl)thiazol-2-yl)isonicotinamide], the IC50 in experiment [1] (setting [5]) is 167 nM; in experiment [2] (setting [6]) it was 59.3 nM; in experiment [3] (setting [7]), 121 nM; in experiment [4] (setting [8]), 76.6 nM.

`Cc1cc(Sc2ccc(NS(C)(=O)=O)cc2)cc(C)c1-c1csc(NC(=O)c2ccncc2)n1` [Compound 43, N-(4-(2,6-Dimethyl-4-((4-(methylsulfonamido)phenyl)thio)phenyl)thiazol-2-yl)isonicotinamide]: the IC50 worked out at 66.4 nM in experiment [1] (setting [5]), 26.6 nM in experiment [2] (setting [6]), 49.4 nM in experiment [3] (setting [7]) and 53.1 nM in experiment [4] (setting [8]).

In the case of `Cc1cc(C)c(-c2csc(NC(=O)Cc3ccncc3)n2)c(C)c1` [Compound 47, N-(4-Mesitylthiazol-2-yl)-2-(pyridin-4-yl)acetamide], the half-maximal inhibitory concentration (IC50) in experiment [1] (setting [5]) was found to be 619 nM; in experiment [2] (setting [6]) it was 382 nM; in experiment [3] (setting [7]), 304 nM; in experiment [4] (setting [8]), 312 nM.

For `COc1ccc(Oc2cc(C)c(-c3csc(NC(=O)c4ccncc4)n3)c(C)c2)cc1` [Compound 48, N-(4-(4-(4-Methoxyphenoxy)-2,6-dimethylphenyl)thiazol-2-yl)isonicotinamide], the IC50 is 48.6 nM in experiment [1] (setting [5]), 34.9 nM in experiment [2] (setting [6]), 37 nM in experiment [3] (setting [7]) and 32 nM in experiment [4] (setting [8]).

As for `COc1ccc(Oc2cc(C)c(-c3csc(NC(=O)c4ccnc(F)c4)n3)c(C)c2)cc1` [Compound 49, 2-Fluoro-N-(4-(4-(4-methoxyphenoxy)-2,6-dimethylphenyl)thiazol-2-yl)isonicotinamide], the IC50 is 42.7 nM in experiment [1] (setting [5]), 16.3 nM in experiment [2] (setting [6]), 40 nM in experiment [3] (setting [7]) and 20 nM in experiment [4] (setting [8]).

Consider `Cc1cc(C)c(-c2csc(NC(=O)Cc3ccncc3)n2)c(C)c1` [II-93, N-(4-Mesitylthiazol-2-yl)-2-(pyridin-4-yl)acetamide], for which the half-maximal inhibitory concentration (IC50) in experiment [1] (Table 2, read-out: Antiproliferative IC50 Hela) amounted to 620 nM; in experiment [2] (Table 2, read-out: Antiproliferative IC50 K562) it was 380 nM; in experiment [3] (Table 2, read-out: Antiproliferative IC50 MDA-MB-468), 300 nM; in experiment [4] (read-out: Antiproliferative IC50 MDA-MB-231, Table 2), 310 nM.
